Results as given in US8173689B2 (Novartis AG, priority 2006, dated 2012).
Where two headings read alike, the source gives them in different places.

Tests used:
[1] = system: MNFS60 (murine AML cells); assay: Cell viability assay in MCSF dependent MNFS60 cells (Cell Titer Glo); type: cell-based; details: Mus musculus, tested at about 1 μM, read-out: M-NFS-60 CP percent inhibition
Procedure, shortened: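 MNFS60 cells grown with 10 ng/ml MCSF (final) were exposed for 72 hrs at 37° C., 5% CO2 to 3-fold serial compound dilutions. Viable cells were measured by Cell Titer Glo luminescence, in triplicate, and EC50s were derived by curve fitting.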

[2] = target: T1, cytoplasmic domain of the human CSF-1R (Homo sapiens, UniProt P07333); assay: In vitro kinase assay for colony stimulating factor-1 receptor (AlphaScreen); type: biochemical; details: tested at about 1 μM, read-out: CSF-1R percent inhibition
T1 construct: Recombinant protein corresponding to the cytoplasmic domain of the human CSF-1R; purchased Invitrogen Corporation, Carlsbad, Calif; PV3249
T1 sequence (P07333 539-972 limits assumed): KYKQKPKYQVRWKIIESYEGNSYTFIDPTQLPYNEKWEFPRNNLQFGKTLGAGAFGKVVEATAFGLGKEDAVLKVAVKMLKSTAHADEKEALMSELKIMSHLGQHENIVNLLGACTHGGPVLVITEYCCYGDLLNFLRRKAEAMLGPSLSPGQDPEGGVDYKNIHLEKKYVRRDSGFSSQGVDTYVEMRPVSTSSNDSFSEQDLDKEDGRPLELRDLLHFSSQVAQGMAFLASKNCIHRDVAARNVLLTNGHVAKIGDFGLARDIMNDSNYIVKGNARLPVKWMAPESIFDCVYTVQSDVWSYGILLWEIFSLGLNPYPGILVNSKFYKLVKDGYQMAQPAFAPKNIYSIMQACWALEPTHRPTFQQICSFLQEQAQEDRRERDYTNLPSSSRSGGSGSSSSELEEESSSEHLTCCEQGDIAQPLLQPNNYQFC
Procedure, shortened: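 4 nM enzyme, 1 μM ATP; buffer 50 mM Hepes pH 7.5, 5 mM MgCl2, 10 mM MnCl2, 1.0 mM DTT, 0.1% BSA, 0.01% Tween 80. Readout: AlphaScreen, PT66 acceptor/streptavidin donor, overnight.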

[3] = target: T2, full-length human CSF-1R receptor (Homo sapiens, UniProt P07333); assay: In vitro inhibition of CSF-1R receptor tyrosine phosphorylation in transfected HEK293H cells stimulated with MCSF; type: cell-based; details: HEK293-H, tested at about 1 μM; HEK293H cells; read-out: pCSF1R percent inhibition
T2 construct: transfected with the full-length human CSF-1R receptor cloned in house; expressed in transfected cells; host or cells: HEK293H (Invitrogen Cat. #11631017)
Procedure: The lysate was then transferred to total CSF-1R antibody coated 96-well plates that had already been blocked with 3% Blocker A from Mesoscale discovery (MSD) for 2 hours and washed afterwards. Lysates were incubated overnight at 4° C. and the plates were then washed 4× with MSD Tris Wash Buffer. […] The plates were read on the Sector 6000 instrument (MSD). Raw data was imported in Abase and EC50s calculated with XL-fit data analysis software.

[4] = target: T3, kinase domain of PDGFRβ (Homo sapiens, UniProt P09619); assay: Inhibition of PDGFRb kinase signaling in an in vitro biochemical assay (alphascreen); details: tested at about 1 μM, read-out: PDGFRβ percent inhibition
T3 construct: The kinase domain of PDGFRβ was assayed in 50 mM Hepes; purchased Invitrogen P3082

[5] = target: T4, kinase domain of cKIT (Homo sapiens, UniProt P10721); assay: Inhibition of cKIT kinase signaling in an in vitro biochemical assay (alphascreen); details: tested at about 1 μM, read-out: cKit percent inhibition
T4 construct: The kinase domain of cKIT was assayed in 50 mM Hepes; purchased Upstate 14-559
T4 sequence (P10721 589-937 limits assumed): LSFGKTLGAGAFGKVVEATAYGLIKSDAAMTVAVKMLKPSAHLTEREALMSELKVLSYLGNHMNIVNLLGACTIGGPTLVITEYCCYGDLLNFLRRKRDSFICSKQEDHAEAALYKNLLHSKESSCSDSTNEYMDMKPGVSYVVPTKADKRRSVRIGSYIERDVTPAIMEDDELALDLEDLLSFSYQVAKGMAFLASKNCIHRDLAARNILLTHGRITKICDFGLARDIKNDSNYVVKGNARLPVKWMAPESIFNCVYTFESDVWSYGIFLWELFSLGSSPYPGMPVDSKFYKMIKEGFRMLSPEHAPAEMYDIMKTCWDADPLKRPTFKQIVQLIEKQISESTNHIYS

T3 sequence (P09619 600-962 limits assumed): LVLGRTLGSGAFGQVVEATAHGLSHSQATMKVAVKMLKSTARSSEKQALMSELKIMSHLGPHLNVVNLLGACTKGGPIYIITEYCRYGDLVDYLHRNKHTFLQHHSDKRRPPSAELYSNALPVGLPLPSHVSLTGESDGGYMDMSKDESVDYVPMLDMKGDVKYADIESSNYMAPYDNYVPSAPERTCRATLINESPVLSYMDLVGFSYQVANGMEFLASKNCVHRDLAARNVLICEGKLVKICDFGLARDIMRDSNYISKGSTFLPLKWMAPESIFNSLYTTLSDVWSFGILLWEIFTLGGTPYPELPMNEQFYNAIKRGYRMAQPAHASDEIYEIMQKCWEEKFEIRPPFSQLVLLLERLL
T2 sequence (P07333 20-972): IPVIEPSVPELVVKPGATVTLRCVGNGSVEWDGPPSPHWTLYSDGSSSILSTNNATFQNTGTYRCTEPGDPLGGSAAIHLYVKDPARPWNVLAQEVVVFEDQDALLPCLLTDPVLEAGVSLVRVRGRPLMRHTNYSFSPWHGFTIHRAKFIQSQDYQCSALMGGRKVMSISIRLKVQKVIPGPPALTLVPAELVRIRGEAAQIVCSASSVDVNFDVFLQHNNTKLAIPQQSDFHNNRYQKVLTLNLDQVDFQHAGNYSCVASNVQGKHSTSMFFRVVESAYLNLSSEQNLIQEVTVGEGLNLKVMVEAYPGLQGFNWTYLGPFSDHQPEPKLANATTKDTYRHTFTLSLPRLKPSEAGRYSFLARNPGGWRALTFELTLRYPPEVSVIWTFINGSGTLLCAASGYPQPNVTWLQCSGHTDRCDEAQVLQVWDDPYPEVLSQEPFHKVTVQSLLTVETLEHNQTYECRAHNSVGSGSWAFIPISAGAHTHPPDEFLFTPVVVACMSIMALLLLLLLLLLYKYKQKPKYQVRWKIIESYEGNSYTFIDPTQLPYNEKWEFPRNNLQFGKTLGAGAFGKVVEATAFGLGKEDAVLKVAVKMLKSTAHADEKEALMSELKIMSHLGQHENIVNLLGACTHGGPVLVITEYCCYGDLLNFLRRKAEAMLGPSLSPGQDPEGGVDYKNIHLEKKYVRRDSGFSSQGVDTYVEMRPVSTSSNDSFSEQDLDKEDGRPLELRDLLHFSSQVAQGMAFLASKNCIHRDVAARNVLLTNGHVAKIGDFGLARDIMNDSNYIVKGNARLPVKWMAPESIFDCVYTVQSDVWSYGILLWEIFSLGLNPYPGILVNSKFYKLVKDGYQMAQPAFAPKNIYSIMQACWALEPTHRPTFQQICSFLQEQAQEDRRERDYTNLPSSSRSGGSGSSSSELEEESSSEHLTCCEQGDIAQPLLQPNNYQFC

Row | Compound | inhibition at 1 µM ([1]; MNFS60 cells) | inhibition at 1 µM [2] | inhibition at 1 µM [3] | inhibition at 1 µM [4] | inhibition at 1 µM ([1]; compounds of Table 3) | inhibition at 1 µM ([2]; compounds of Table 3) | inhibition at 1 µM ([5]; compounds of Table 3) | inhibition at 1 µM ([4]; compounds of Table 3) | inhibition at 1 µM ([1]; MCSF dependent MNFS60 cells) | inhibition at 1 µM [5]
1 | COc1cc2nccc(Oc3ccc4nc(Nc5ccc6c(c5)OCCO6)oc4c3)c2cc1OC [Compound 4, (2,3-Dihydro-benzo[1,4]dioxin-6-yl)-[6-(6,7-dimethoxy-quinolin-4-yloxy)-benzooxazol-2-yl]-amine] | 100% | 100% | 91% |  |  |  |  |  |  | 
2 | CNC(=O)c1cc(Oc2ccc3nc(Nc4ccc5c(c4)OCCO5)oc3c2)ccn1 [Compound 5, 4-[2-(2,3-Dihydro-benzo-[1,4]dioxin-6-ylamino)-benzooxazol-6-yloxy]-pyridin-2-carboxylic acid methylamide] | 100% | 99% | 93% |  |  |  |  |  |  | 
3 | CC(=O)Nc1cc(Oc2ccc3nc(NCC4CCCCC4)oc3c2)ccn1 [Compound 34, N-{4-[2-(Cyclohexylmethyl-amino)-benzooxazol-6-yloxy]-pyridin-2-yl}-acetamide] | 68% | 99% | 65% | 89% |  |  |  |  |  | 
4 | CNC(=O)c1cc(Oc2ccc3nc(NCc4ccc(Cl)cc4Cl)oc3c2)ccn1 [Compound 9, 4-[2-(2,4-Dichloro-benzylamino)-benzooxazol-6-yloxy]-pyridin-2-carboxylic acid methylamide] | 58% | 99% | 75% |  |  |  |  |  |  | 
5 | CNC(=O)c1cc(Oc2ccc3nc(NCC4CCCCC4)oc3c2)ccn1 [Compound 21, 4-[2-(Cyclohexylmethyl-amino)-benzooxazol-6-yloxy]-pyridine-2-carboxylic acid methylamide] | 55% | 99% | 65% | 0% |  |  |  |  |  | 
6 | CNC(=O)c1cc(Oc2ccc3nc(Nc4ccccc4CN4CCOCC4)oc3c2)ccn1 [Compound 25, 4-[2-(2-Morpholin-4-ylmethyl-phenylamino)-benzooxazol-6-yloxy]-pyridine-2-carboxylic acid methylamide] | 42% | 98% | 35% | 7% |  |  |  |  |  | 
7 | CNC(=O)c1cc(Oc2ccc3nc(N[C@@H](C)c4ccccc4)oc3c2)ccn1 [Compound 7, 4-[2-((S)-1-Phenyl-ethylamino)-benzooxazol-6-yloxy]-pyridin-2-carboxylic acid methylamide] | 17% | 94% | 21% |  |  |  |  |  |  | 
8 | CNC(=O)c1cc(Oc2ccc3nc(N[C@H](C)c4ccccc4)oc3c2)ccn1 [Compound 2, 4-[2-((R)-1-Phenyl-ethylamino)-benzooxazol-6-yloxy]-pyridine-2-carboxylic acid methylamide] | 63% | 100% | 80% |  |  |  |  |  |  | 
9 | CNC(=O)c1cc(Oc2ccc3nc(NCc4ccccc4Cl)oc3c2)ccn1 [Compound 8, 4-[2-(2-Chloro-benzylamino)-benzooxazol-6-yloxy]-pyridin-2-carboxylic acid methylamide] | 60% | 99% | 92% |  |  |  |  |  |  | 
10 | CNC(=O)c1cc(Oc2ccc3nc(N[C@H]4CCCC[C@@H]4O)sc3c2)ccn1 [Compound 137, 4-[2-((1S,2S)-2-Hydroxy-cyclohexylamino)-benzothiazol-6-yloxy]-pyridine-2-carboxylic acid methylamide] | 100% | 100% | 98% |  |  |  |  |  |  | 
11 | CNC(=O)c1cc(Oc2ccc3nc(NCCC4CC4)sc3c2)ccn1 [Example 290, 4-(2-(2-cyclopropylethylamino)benzo[d]thiazol-6-yloxy)-N-methylpicolinamide] |  |  |  |  | 2% | 100% | 10% | 15% |  | 
12 | Cn1cc(-c2cc(Oc3ccc4nc(N[C@H]5c6ccccc6C[C@H]5O)sc4c3)ccn2)cn1 [Example 350, (1S,2R)-1-(6-(2-(1-methyl-1H-pyrazol-4-yl)pyridin-4-yloxy)benzo[d]thiazol-2-ylamino)-2,3-dihydro-1H-inden-2-ol] |  | 100% |  | 91% |  |  |  |  | 100% | 100%
13 | CNC(=O)c1cc(Oc2cc(Cl)c3nc(NCC4CCCCC4)sc3c2)ccn1 [Example 375, 4-(4-chloro-2-(cyclohexylmethylamino)benzo[d]thiazol-6-yloxy)-N-methylpicolinamide] |  | 100% |  | 38% |  |  |  |  | 19% | 97%
14 | O[C@@H]1CCCC[C@H]1Nc1nc2ccc(Oc3ccnc(-c4cncnc4)c3)cc2s1 [Example 285, (1R,2R)-2-(6-(2-(pyrimidin-5-yl)pyridin-4-yloxy)benzo[d]thiazol-2-ylamino)cyclohexanol] |  |  |  |  | 0% | 99% | 33% | 8% |  | 
15 | CC[C@H](C)[C@@H](CO)Nc1nc2ccc(Oc3ccnc(-c4cnn(C)c4)c3)cc2s1 [Example 349, (2S,3S)-3-methyl-2-(6-(2-(1-methyl-1H-pyrazol-4-yl)pyridin-4-yloxy)benzo[d]thiazol-2-ylamino)pentan-1-ol] |  | 100% |  | 73% |  |  |  |  | 100% | 77%
16 | CCOC(=O)C1(CNc2nc3ccc(Oc4ccnc(C(=O)NC)c4)cc3o2)CCCCC1 [Compound 75, 1-{[6-(2-Methylcarbamoyl-pyridin-4-yloxy)-benzooxazol-2-ylamino]-methyl}-cyclohexane-carboxylic acid ethyl ester] | 0% | 99% |  | 0% |  |  |  |  |  | 7%
17 | c1ccc2c(c1)CCC[C@@H]2Nc1nc2ccc(Oc3ccnc4ccccc34)cc2s1 [Example 249, (S)-6-(quinolin-4-yloxy)-N-(1,2,3,4-tetrahydronaphthalen-1-yl)benzo[d]thiazol-2-amine] |  |  |  |  | 100% | 100% | 69% | 0% |  | 
18 | CNC(=O)c1cc(Oc2ccc3nc(N[C@H](C)C(C)C)sc3c2)ccn1 [Compound 149] |  |  |  |  | 48% | 100% | 29% | 21% |  | 
19 | CNC(=O)c1cc(Oc2ccc3nc(N[C@@H]4CC=CC[C@@H]4C(N)=O)sc3c2)ccn1 [Example 217] |  |  |  |  | 0% | 99% | 16% | 23% |  | 
20 | C[C@H](Nc1nc2ccc(Oc3ccnc(Cl)c3)cc2s1)C1CCCCC1 [Example 264, (S)-6-(2-chloropyridin-4-yloxy)-N-(1-cyclohexylethyl)benzo[d]thiazol-2-amine] |  |  |  |  | 3% | 97% | 25% | 4% |  | 
21 | CCNc1cc(Oc2ccc3nc(N[C@@H]4CCCC[C@H]4O)sc3c2)ccn1 [Example 369, (1R,2R)-2-(6-(2-(ethylamino)pyridin-4-yloxy)benzo[d]thiazol-2-ylamino)cyclohexanol] |  | 100% |  | 12% |  |  |  |  | 44% | 26%
22 | C[C@@H](Nc1nc2ccc(Oc3ccnc(-c4cnn(C)c4)c3)cc2s1)C1CCCCC1 [Example 354, (R)-N-(1-cyclohexylethyl)-6-(2-(1-methyl-1H-pyrazol-4-yl)pyridin-4-yloxy)benzo[d]thiazol-2-amine] |  | 100% |  | 98% |  |  |  |  | 100% | 100%
